Biological target: T1, EndoS CBM (carbohydrate binding module of endoglycosidase S) (Streptococcus pyogenes, UniProt Q99Y92)
T1 construct: isolated CBM domain, residues 761-924, C-terminal hexahistidine tag (pET303), 15N-labelled, expressed in E. coli BL21(DE3)
Assay: 1H, […] HSQC NMR titration
Details: 0.15 mM 15N-CBM; 62.5 mM to 2 M ligand; 10 mM BisTris, pH 6.5, 15 mM NaCl, 37 °C

T1 sequence (Q99Y92 761-924): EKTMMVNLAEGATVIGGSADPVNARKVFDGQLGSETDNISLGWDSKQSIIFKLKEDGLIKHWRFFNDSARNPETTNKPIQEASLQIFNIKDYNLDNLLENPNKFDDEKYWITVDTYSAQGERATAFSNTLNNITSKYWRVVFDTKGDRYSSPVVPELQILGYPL

OC[C@H]1OC(O)[C@H](O)[C@@H](O)[C@H]1O (stereo partly drawn) [D-galactose]
1H,15N HSQC NMR titration: four distinct peaks appeared upon D-galactose titration, which were visible from the lowest titration point
